pEC50: −log10 of the molar value. Where “and” joins values, the source holds several entries; their conditions need not be identical. Equal values may be shown once. Read-outs that look alike come from different tables or passages of the source.
What was measured:
[1] = tested on: H37Rv; experiment: microbe, parasite or virus in culture; assay type: cell-based, M. tuberculosis; conditions: Mycobacterium tuberculosis, H37RV, THP-1, 90 h, read-out: H37Rv % Inhibition at 500 nM
[2] = tested on: MYC431; experiment: microbe, parasite or virus in culture; assay type: cell-based, M. tuberculosis; conditions: Mycobacterium tuberculosis, THP-1, 90 h
[3] = tested on: JAL2287; experiment: microbe, parasite or virus in culture; assay type: cell-based, M. tuberculosis; conditions: Mycobacterium tuberculosis, THP-1, 90 h
[4] = tested on: H37Rv; assay type: cell-based, M. tuberculosis
[5] = tested on: H37Rv; experiment: microbe, parasite or virus in culture; assay type: cell-based, M. tuberculosis; conditions: Mycobacterium tuberculosis, THP-1, 90 h
[6] = in vivo; conditions: Balb/C, mouse
[7] = tested on: MDR-M. tb (JAL2287); parameters: species or system M. tuberculosis; conditions: in vivo
[8] = tested on: drug susceptible M. tb (H37Rv); parameters: species or system M. tuberculosis; conditions: in vivo
[9] = tested on: MYC431; assay type: cell-based, M. tuberculosis
[10] = tested on: JAL2287; assay type: cell-based, M. tuberculosis
[11] = Balb/C, mouse, in vivo, po, 10 mg/kg
[12] = in vivo; conditions: Beagle, dog

Q: For `CO[C@@H](C(=O)NC1CCNCC1)c1ccccc1` [Compound 1085, (R)-2-Methoxy-2-phenyl-N-(piperidin-4-yl)acetamide], which inhibition at 0.5 µM [1] is on record?
A: 93%

Q: And the pEC50 [2]?
A: 10.00

Q: What about the pEC50 [3] of the same compound?
A: 10.00

Q: And the “CFU/well (1 × 10^3) After treatment with 1085” value (from here on “CFU/well”) [4]?
A: 8.66 ± 2.51 CFU/well (1 × 10^3)

Q: What about the pEC50 [5] of the same compound?
A: 9.30

Q: What about the bioavailability [6] of the same compound?
A: 47%

Q: And the AUC ([6]; iv, 1 mg/kg)?
A: 1.73 µM·h

Q: What about the Cmax ([6]; iv, 1 mg/kg) of the same compound?
A: 3.06 µM

Q: What about the Tmax ([6]; iv, 1 mg/kg) of the same compound?
A: 0 h

Q: What about the Vd ([6]; iv, 1 mg/kg) of the same compound?
A: 0.22 L/kg

Q: What about the clearance ([6]; iv, 1 mg/kg) of the same compound?
A: 1.33 mL/min/kg

Q: What about the half-life ([6]; iv, 1 mg/kg) of the same compound?
A: 1.9 h

Q: What about the AUC ([6]; po, 10 mg/kg) of the same compound?
A: 8.17 µM·h

Q: And the Cmax ([6]; po, 10 mg/kg)?
A: 11.2 µM

Q: What about the Tmax ([6]; po, 10 mg/kg) of the same compound?
A: 0.2 h

Q: What about the half-life ([6]; po, 10 mg/kg) of the same compound?
A: 2.8 h

Q: And the “% Reduction of CFU in lung” value [7]?
A: 43.5% and 62.4% and 80.0%

Q: What about the “% Reduction of CFU in spleen” value [7] of the same compound?
A: 96.6% and 98.3%

Q: What about the “CFU/spleen (×10^3)” value [7] of the same compound?
A: 0.4 ×10^3 and 0.2 ×10^3

Q: And the “CFU/Lung (×10^5)” value [8]?
A: 4.76 ×10^5

Q: And the “CFU/well” value [9]?
A: 6.00 ± 1.00 CFU/well (1 × 10^3)

Q: And the “CFU/well” value [10]?
A: 6.33 ± 3.51 CFU/well (1 × 10^3)

Q: And the Cl [11]?
A: 2 mL/min/kg

Q: And the Vd [11]?
A: 0.13 L/kg

Q: What about the bioavailability [12] of the same compound?
A: 57%

Q: And the AUC(0-t) ([12]; iv, 0.3 mg/kg)?
A: 3.44 µM·h

Q: And the Cmax ([12]; iv, 0.3 mg/kg)?
A: 2.76 µM

Q: And the Tmax ([12]; iv, 0.3 mg/kg)?
A: 0 h

Q: What about the half-life ([12]; iv, 0.3 mg/kg) of the same compound?
A: 3 h

Q: And the AUC(0-t) ([12]; po, 3 mg/kg)?
A: 19.6 µM·h

Q: What about the Cmax ([12]; po, 3 mg/kg) of the same compound?
A: 3.77 µM

Q: And the Tmax ([12]; po, 3 mg/kg)?
A: 1 h

Q: And the half-life ([12]; po, 3 mg/kg)?
A: 2.5 h

Reference: patent US10207993B2 (priority 2014, dated 2019)
